# Tests used:
# nitric oxide = assay: Nitric oxide production / systemic NO levels in treated patients; type: in vivo, human
# Experimental: Moreover, it was observed that a few patients who received treatment with an agent of the instant invention began to develop resistance due to down-regulation of the insulin receptor. This effect was reversed by co-administering low dose aspirin (15 mg) with the agent. Upon co-administration, the production of nitric oxide returned to normal within 30 minutes of treatment. While the instant agents work through the insulin receptor, aspirin appeared to be insulin-independent and was nitric oxide mediated. Accordingly, one embodiment of the instant methods is the co-administration, i.e., simultaneous or sequential, of low dose aspirin (e.g., ranging from 5-100 mg) with an agent of the instant invention. […] Expression of maspin, a serine protease inhibitor (serpin) known to be a potent anticancer protein, is severely impaired in breast cancer tissue. […] Similarly, production of alpha interferon-a, a widely used anticancer cytokine noted for its antiproliferative and anticancer property, is severely impaired in both malignant breast cancer tissue and non-malignant neutrophils in breast cancer. As with maspin, increases in nitric oxide levels increased production of alpha-interferon to normal ranges. By administering an agent of the instant invention, the auto immunity that is T-cell induced is improved through the neutrophils.
# [1] = system: insulin-activated nitric oxide synthase (IANOS); assay: Assay of IANOS of human erythrocytes; type: biochemical
# Experimental: Both biologic and non-biologic materials for were screened for their ability to activate human erythrocytes IANOS. […] The protein was purified to homogeneity from an aqueous extract (pH 7.4 buffer) by the combination of DEAE cellulose chromatography and SEPHADEX® gel filtration techniques.
# Insulin-activated nitric oxide synthase (IANOS) activity of the erythrocyte suspension was carried out by determining the conversion of oxyhemoglobin to methemoglobin using standard methods. Purification of insulin activated nitric oxide synthase (from human erythrocyte membranes) was carried out by DEAE cellulose chromatography.
# wide variety of cancers = assay: Topical treatment of cancer patients, overall statements; type: in vivo, human
# Source text: A total of 8,125 patients with different kinds of cancer participated in this study. These patients were divided into two groups. Blood samples were collected from 80 patients designated as Group I. These patients included 45 males between 20-65 years old, and 35 females between 25-55 years old. These patients were newly diagnosed patients with cancer who at the time of blood donation had not taken any medicine at least for 14 days and had not yet undergone any treatment of cancer including radiation or chemotherapy but opted for surgery. None of the patients had overt diabetes mellitus, systemic hypertension or suffered coronary artery disease at presentation. None of these patients had any other diagnosed life threatening condition.
# Two categories of patients were included in Group II. The first category included 6,705 patients who had previously undergone all available cancer treatments including surgery, radiation and chemotherapy. At the time of participation in the study these patients had exhausted all therapeutic options and were under the care of private physicians and family members in their home. […] At the time of the participation in the study all patients, in the Group II in the second category had stopped taking treatments for cancer, such as chemotherapy and radiation, for at least 2 months. The diagnostic procedures and condition of the patients at presentation are described in Table 1. All institutionalized patients in group II were excluded from the study to avoid ambiguity. As in the case of Group I the patients with any other life threatening conditions or severe infection were also excluded from this group.
# A control group of 150 patients were selected randomly from the Group II patients. […] Since the effect of the agents of the instant invention on the neutralization of IANOS antibody in vivo in cancer patients (responders) could be noticed by immunoblot technique (end-point) in 7 days, the patients in the placebo group received the vehicle for 7 days; the neutralization of the antibody and nitric oxide synthesis were determined. […]
# [2] = system: maspin and alpha interferon-a; assay: Maspin and alpha interferon in breast cancer tissue and neutrophils of treated subjects; type: in vivo, human; settings: malignant breast cancer tissue and non-malignant neutrophils in breast cancer
# Source text: Expression of maspin, a serine protease inhibitor (serpin) known to be a potent anticancer protein, is severely impaired in breast cancer tissue. […] Similarly, production of alpha interferon-a, a widely used anticancer cytokine noted for its antiproliferative and anticancer property, is severely impaired in both malignant breast cancer tissue and non-malignant neutrophils in breast cancer. As with maspin, increases in nitric oxide levels increased production of alpha-interferon to normal ranges. By administering an agent of the instant invention, the auto immunity that is T-cell induced is improved through the neutrophils.
Molecule,"time until production of nitric oxide returned to normal (nitric oxide; low dose aspirin (15 mg) co-administered with the agent, patients who developed resistance (insulin receptor down-regulation)) [min]",activation of erythrocyte IANOS [1],systemic NO levels (nitric oxide; after administration),"cancers in which particularly effective (wide variety of cancers; non-Hodgkin's lymphoma, brain cancer, breast cancer with mastectomy, lung cancer (non-small cell))",comparative effect of both agents (wide variety of cancers; pancreatic cancer and bone cancer),"effect against a wide variety of cancers (wide variety of cancers; topical, cancer patients, as shown in Table 1)",alpha interferon-a [2],maspin [2]
"CC(=O)Oc1ccccc1C(=O)O [aspirin, reference compound]",≤ 30,,,,,,,
insulin,,potent activator,increase,particularly effective,equally effective,effective,increase,increase

# — patent US20050281867A1, “Nitric oxide inducing agents” (priority 2003, published 2005)
